Source: patent publication US9045468B2, “2,5-methano- and 2,5-ethano-tetrahydrobenzazepine derivatives and use thereof to block reuptake of norepinephrine, dopamine, and serotonin” (Albany Molecular Research, Inc., priority 2010, dated 2015)

Assays:
[1] = molecular target: hSERT (Homo sapiens (Human), UniProt P31645); test: SERT radioligand binding assay ([125I]RTI-55, HEK-293 membranes); conditions: recombinant HEK-293 membranes, [125I]RTI-55; read-out: Binding Affinity (IC50, nM) SERT
[2] = molecular target: hDAT (Homo sapiens (Human), UniProt Q01959); test: DAT radioligand binding assay ([125I]RTI-55, HEK-293 membranes); conditions: recombinant HEK-293 membranes, [125I]RTI-55; read-out: Binding Affinity (IC50, nM) DAT
Sequence of hDAT (Q01959 whole entry): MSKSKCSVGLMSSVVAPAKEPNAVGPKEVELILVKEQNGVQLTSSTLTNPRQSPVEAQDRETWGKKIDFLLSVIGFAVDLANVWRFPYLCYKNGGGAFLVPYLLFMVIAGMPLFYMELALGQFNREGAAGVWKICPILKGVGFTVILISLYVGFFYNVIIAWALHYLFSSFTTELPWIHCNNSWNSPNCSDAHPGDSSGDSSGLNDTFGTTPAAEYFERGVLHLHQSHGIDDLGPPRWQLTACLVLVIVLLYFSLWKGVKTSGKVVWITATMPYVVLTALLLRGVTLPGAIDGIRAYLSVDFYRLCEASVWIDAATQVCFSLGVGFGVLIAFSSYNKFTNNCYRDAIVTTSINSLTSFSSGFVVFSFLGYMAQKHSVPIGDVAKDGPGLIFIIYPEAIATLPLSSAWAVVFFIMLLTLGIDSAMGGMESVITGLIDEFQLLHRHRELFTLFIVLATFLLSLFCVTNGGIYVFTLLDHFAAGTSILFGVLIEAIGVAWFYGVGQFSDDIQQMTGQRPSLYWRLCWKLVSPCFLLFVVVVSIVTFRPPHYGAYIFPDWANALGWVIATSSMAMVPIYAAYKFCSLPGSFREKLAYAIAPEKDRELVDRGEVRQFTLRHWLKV

[3] = molecular target: hNET (Homo sapiens (Human), UniProt P23975); test: NET radioligand binding assay ([3H]nisoxetine, HEK-293 membranes); conditions: recombinant HEK-293 membranes, [3H]nisoxetine; read-out: Binding Affinity (IC50, nM) NET
Sequence of hNET (P23975 whole entry): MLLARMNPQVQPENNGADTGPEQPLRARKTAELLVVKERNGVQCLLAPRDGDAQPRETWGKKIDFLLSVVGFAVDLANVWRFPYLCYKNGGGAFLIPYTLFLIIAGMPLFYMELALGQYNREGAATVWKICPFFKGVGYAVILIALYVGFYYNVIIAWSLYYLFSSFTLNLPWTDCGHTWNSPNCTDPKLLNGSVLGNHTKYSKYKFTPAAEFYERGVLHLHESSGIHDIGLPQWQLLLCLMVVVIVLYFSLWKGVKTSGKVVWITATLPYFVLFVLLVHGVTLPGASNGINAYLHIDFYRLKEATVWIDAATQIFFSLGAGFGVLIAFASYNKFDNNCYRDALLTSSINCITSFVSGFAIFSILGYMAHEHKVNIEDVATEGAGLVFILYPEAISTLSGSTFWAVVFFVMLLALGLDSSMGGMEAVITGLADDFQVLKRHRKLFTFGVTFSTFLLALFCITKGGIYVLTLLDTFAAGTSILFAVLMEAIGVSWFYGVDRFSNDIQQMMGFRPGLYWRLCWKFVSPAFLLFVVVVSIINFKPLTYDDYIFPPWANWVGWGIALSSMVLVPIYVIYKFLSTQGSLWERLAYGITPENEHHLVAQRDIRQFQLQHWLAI

[4] = system: SERT; test: Ex vivo transporter occupancy assay, SERT ([3H]citalopram, brain tissue); type: in vivo; conditions: dosed orally, time until sacrifice 3 h
Description: (§1) The general procedure for brain tissue collection and transporter occupancy assessment is briefly described as follows. Mice were sacrificed by asphyxiation in CO2, rats by decapitation and dogs by IV injection of euthanasia solution. For mice and rats, after the brains were removed from the skull, the forebrain tissue (removal of the brainstem and cerebellum) was used for SERT, NET, and DAT occupancy assessment. In dogs, the striatum was dissected for DAT occupancy and the remaining forebrain tissue (without the striatum, brainstem, and cerebellum) was used for SERT and NET occupancy assessment. The brain tissues were frozen in chilled isopentane and stored at −80° C. until homogenization.
(§2) The brain tissues were thawed and then homogenized using a polytron homogenizer (Kinematica). Sample aliquots were frozen immediately and stored at −80° C. Protein content was measured for each sample using a Coomassie protein assay kit (Pierce).
(§3) On the day of ex vivo binding for occupancy assessment, frozen sample aliquots were thawed and needle homogenized, and 100 μg of the tissue was incubated for SERT, NET, and DAT binding under assay conditions summarized in Table 1. After incubation, the reactions were terminated by the addition of ice-cold assay buffer and rapid filtration through a Brandel Cell Harvester using FPXLR-196 filters. The filters were washed twice with ice-cold incubation buffer, punched into a clear plate prior to the addition of 200 ul scintillation fluid per well. Radioligand was measured using a Wallac Microbeta liquid scintillation counter.
(§4) The specific binding was calculated by subtracting the value of the non-specific binding from that of the total binding in each sample. The percent occupancy was calculated as (1−specific binding in drug treated/specific binding in vehicle treated)×100%. […] Nonlinear regression was performed using GraphPad Prism version 3.00 (GraphPad Software, San Diego, Calif.).

[5] = system: DAT; test: Ex vivo transporter occupancy assay, DAT ([125I]RTI-55, brain tissue); type: in vivo; conditions: dosed orally, time until sacrifice 3 h
Description: as §1, §2
as §3, with “After incubation, the reactions were terminated by the addition of ice-cold assay buffer and rapid filtration through a Brandel Cell Harvester using FPXLR-196 filters.” left out
as §4

[6] = system: NET; test: Ex vivo transporter occupancy assay, NET ([3H]nisoxetine, brain tissue); type: in vivo; conditions: dosed orally, time until sacrifice 3 h
Description: as §1, §2
as §3, with “After incubation, the reactions were terminated by the addition of ice-cold assay buffer and rapid filtration through a Brandel Cell Harvester using FPXLR-196 filters.” left out
as §4

Sequence of hSERT (P31645 whole entry): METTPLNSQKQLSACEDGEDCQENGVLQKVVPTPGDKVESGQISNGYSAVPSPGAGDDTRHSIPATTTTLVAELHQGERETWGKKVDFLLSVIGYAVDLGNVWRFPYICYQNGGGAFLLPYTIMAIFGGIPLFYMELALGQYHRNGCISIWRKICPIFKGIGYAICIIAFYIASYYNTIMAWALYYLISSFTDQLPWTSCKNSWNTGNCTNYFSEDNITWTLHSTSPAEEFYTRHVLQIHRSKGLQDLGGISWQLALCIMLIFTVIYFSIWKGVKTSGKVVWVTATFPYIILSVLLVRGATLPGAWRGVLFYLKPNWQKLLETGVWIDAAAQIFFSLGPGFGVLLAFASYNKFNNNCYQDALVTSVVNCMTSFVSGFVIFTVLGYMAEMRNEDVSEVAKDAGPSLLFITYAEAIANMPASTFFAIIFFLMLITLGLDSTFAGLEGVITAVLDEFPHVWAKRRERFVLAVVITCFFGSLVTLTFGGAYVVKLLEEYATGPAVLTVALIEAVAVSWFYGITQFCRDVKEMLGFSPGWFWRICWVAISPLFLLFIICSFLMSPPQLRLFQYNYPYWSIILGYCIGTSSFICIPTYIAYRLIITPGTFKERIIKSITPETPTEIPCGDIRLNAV

| Compound | IC50 [1] [nM] | IC50 [2] [nM] | IC50 [3] [nM] | % Occupancy SERT ([4]; 3 mg/kg) [%] | % Occupancy DAT ([5]; 3 mg/kg) [%] | % Occupancy NET ([6]; 3 mg/kg) [%] | % Occupancy SERT ([4]; 1 mg/kg) [%] | % Occupancy DAT ([5]; 1 mg/kg) [%] | % Occupancy NET ([6]; 1 mg/kg) [%] |
| --- | --- | --- | --- | --- | --- | --- | --- | --- | --- |
| FC(F)Oc1ccc(-c2ccc3c(c2)CN2CCC3(c3ccc(Cl)cc3)C2)nn1 (single isomer, unassigned) [6(−), 5-(4-chlorophenyl)-8(6-(difluoromethoxy)pyridazin-3-yl)-2,5-methano-2,3,4,5-tetrahydro-1H-benzo[c]azepine] | 5.9 | 87.2 | 275 | 59 | 12 | 0 | – | – | – |
| Oc1ccc(-c2ccc3c(c2)CN2CCC3(c3ccc(Cl)cc3)C2)nn1 (single isomer, unassigned) [7(−), 6-(5-(4-chlorophenyl)-2,5-methano-2,3,4,5-tetrahydro-1H-benzo[c]azepin-8-yl)pyridazin-3-ol] | 6.4 | 16.6 | 103 | – | – | – | 70 | 1 | 46 |
| FC(F)Oc1ccc(-c2ccc3c(c2)CN2CCC3(c3ccc(Cl)cc3)CC2)nn1 [Example 14, 5-(4-chlorophenyl)-8-(6-(difluoromethoxy)pyridazin-3-yl)-2,5-ethano-2,3,4,5-tetrahydro-1H-2-benzo[c]azepine] | 1.1 | 57.3 | 264 | 79 | 12 | 0 | – | – | – |
| Clc1ccc(C23CCN(CC2)Cc2cc(-c4cnccn4)ccc23)cc1 [Example 17, 5-(4-chlorophenyl)-2,5-ethano-8-(pyrazin-2-yl)-2,3,4,5-tetrahydro-1H-benzo[c]azepine] | 5.3 | 83.5 | 2300 | – | – | – | 77 | 0 | 12 |
| Nc1cnc(-c2ccc3c(c2)CN2CCC3(c3ccc(Cl)cc3)CC2)cn1 [Example 18, 5-(5-(4-chlorophenyl)-2,5-ethano-2,3,4,5-tetrahydro-1H-benzo[c]azepin-8-yl)pyrazin-2-amine] | 3.5 | 47.6 | 925 | 89 | 15 | 6 | – | – | – |
| O=C1NC2C=CC(c3ccc4c(c3)CN3CCC4(c4ccc(Cl)cc4)CC3)=CC2O1 (stereo not drawn) [Example 22, 6-(5-(4-chlorophenyl)-2,5-ethano-2,3,4,5-tetrahydro-1H-benzo[c]azepin-8-yl)-3,3a-dihydrobenzo[d]oxazol-2(7aH)-one] | 3.4 | 58.6 | 806 | 60 | 5 | 0 | – | – | – |
| CS(=O)(=O)c1ccc(-c2ccc3c(c2)CN2CCC3(c3ccc(Cl)cc3)CC2)cc1 [Example 26, 5-(4-chlorophenyl)-2,5-ethano-8-(4-(methylsulfonyl)phenyl)-2,3,4,5-tetrahydro-1H-benzo[c]azepine] | 7.2 | 63 | 432 | – | – | – | 14 | 3 | 0 |
| FC(F)(F)c1ccc(Oc2ccc3c(c2)CN2CCC3(c3ccc(Cl)cc3)CC2)nn1 [Example 32, 5-(4-chlorophenyl)-2,5-ethano-8-(6-(trifluoromethyl)pyridazin-3-yloxy)-2,3,4,5-tetrahydro-1H-benzo[c]azepine] | 4.3 | 36.5 | 124 | 74 | 42 | 0 | – | – | – |
| Nc1cnc(-c2ccc3c(c2)CN2CCC3(c3ccc(Cl)c(Cl)c3)CC2)cn1 [Example 42, 5-(5-(3,4-dichlorophenyl)-2,5-ethano-2,3,4,5-tetrahydro-1H-benzo[c]azepin-8-yl)pyrazin-2-amine] | 5.9 | 9.2 | 155 | 82 | 54 | 39 | – | – | – |
| FC(F)(F)c1ccc(Oc2ccc3c(c2)CN2CCC3(c3ccc(Cl)c(Cl)c3)CC2)nn1 [Example 45, 5-(3,4-dichlorophenyl)-2,5-ethano-8-(6-(trifluoromethyl)pyridazin-3-yloxy)-2,3,4,5-tetrahydro-1H-benzo[c]azepine] | 4.8 | 0.7 | 35.1 | – | – | – | 46 | 17 | 0 |
| Fc1ccc(C23CCN(CC2)Cc2cc(Oc4ccc(C(F)(F)F)nn4)ccc23)cc1Cl [Example 47, 5-(3-chloro-4-fluorophenyl)-2,5-ethano-8-(6-(trifluoromethyl)pyridazin-3-yloxy)-2,3,4,5-tetrahydro-1H-benzo[c]azepine] | 6.4 | 9 | 112 | – | – | – | 34 | 17 | 0 |
| Fc1cc(C23CCN(CC2)Cc2cc(Oc4ccc(C(F)(F)F)nn4)ccc23)ccc1Cl [Example 48, 5-(4-chloro-3-fluorophenyl)-2,5-ethano-8-(6-(trifluoromethyl)pyridazin-3-yloxy)-2,3,4,5-tetrahydro-1H-benzo[c]azepine] | 7.2 | 10.1 | 134 | – | – | – | 21 | 12 | 0 |
